According to patent publication US20040006041A1, “Aqueous fludarabine phosphate composition” (priority 2002, published 2004):

How the values were obtained:
Format in all cases: physicochemical
[1] = Effect of pH on formation of related compounds, aqueous compositions stored at 40° C. for 1 month
Procedure: The effect of the pH of the aqueous fludarabine phosphate composition on the stability of the compositions at elevated temperatures is shown in the following table. The concentration of fludarabine phosphate in each of the compositions of Table 1 was 25 mg/mL.
Its level of “total related compounds” was 0.1%. In contrast, after being stored for 1 months at 40° C., the fludarabine phosphate composition having a pH of 7.7 contained 0.8 of FP-2HA and 1.3% “total related compounds.”

[2] = Effect of pH on formation of related compounds, aqueous composition stored at 27.5° C. for 7 months
Procedure: (§1) The effect of the pH of the aqueous fludarabine phosphate composition on the stability of the compositions at elevated temperatures also is shown in Tables 2 and 3. The concentration of fludarabine phosphate in each of the compositions of Tables 2 and 3 was 25 mg/mL.

[3] = Effect of pH on formation of related compounds, aqueous composition stored at 40° C. for 1 month followed by one-year storage at 2-8° C.; details: 25 mg/mL, 40° C. 1 month then one year 2-8° C.
Procedure: as §1

[4] = pH 5.5, 25 mg/mL aqueous composition
[5] = pH 6.5, 25 mg/mL aqueous composition
[6] = pH 7.7, 25 mg/mL aqueous composition
[7] = pH 8.1, 25 mg/mL aqueous composition

## Fludarabine phosphate
[1]; [4]
  Concentration of FP-2HA, %: <LOQ
  Total Related Compounds*, % (excluding fludarabine): 0.1%
[1]; [5]
  Concentration of FP-2HA, %: <LOQ
  Total Related Compounds*, % (excluding fludarabine): 0.2%
[1]; [6]
  Concentration of FP-2HA, %: 0.8%
  Total Related Compounds*, % (excluding fludarabine): 1.3%
[1]; [7]
  Concentration of FP-2HA, %: 1.0%
  Total Related Compounds*, % (excluding fludarabine): 2.2%
[2]; pH 6.8, 25 mg/mL
  Concentration of FP-2HA, %: 0.33%
  Single Largest Other, %: 0.1%
  Total Related Compounds*, % (excluding fludarabine): 0.43%
[2]; pH 7.2, 25 mg/mL
  Concentration of FP-2HA, %: 0.54%
  Single Largest Other, %: 0.1%
  Total Related Compounds*, % (excluding fludarabine): 0.94%
[3]; pH 6.0
  Concentration of FP-2HA, %: 0.4%
  Single Largest Other, %: 0.09%
  Total Related Compounds*, % (excluding fludarabine): 0.5%
[3]; pH 7.0
  Concentration of FP-2HA, %: 0.32%
  Single Largest Other, %: 0.1%
  Total Related Compounds*, % (excluding fludarabine): 0.34%
[3]; pH 7.6
  Concentration of FP-2HA, %: 0.56%
  Single Largest Other, %: 0.2%
  Total Related Compounds*, % (excluding fludarabine): 1.1%
[3]; pH 8.1
  Concentration of FP-2HA, %: 0.93%
  Single Largest Other, %: 0.4%
  Total Related Compounds*, % (excluding fludarabine): 2.0%
